Source: patent US10774071B2, “PD-1/PD-L1 inhibitors” (Gilead Sciences, Inc., priority 2018, dated 2020)
Like-named read-outs stand apart in the source and are kept apart here.

Columns and labels:
PD-1/PD-L1 = PD-1/PD-L1 (Homo sapiens (Human), UniProt Q9NZQ7); assay: PD-1/PD-L1 biochemical protein-protein interaction assay (ALPHA); assay type: binding; details: read-out: IC50 PD-L1-PD1
PD-L1 = PD-L1 (Homo sapiens (Human), UniProt Q9NZQ7); assay: PD-L1/PD-L1 dimerization biochemical protein-protein interaction assay (ALPHA); assay type: binding; details: read-out: AC50 PDL1 Dimer 1 nM
Sequence of PD-L1 (Q9NZQ7 19-238): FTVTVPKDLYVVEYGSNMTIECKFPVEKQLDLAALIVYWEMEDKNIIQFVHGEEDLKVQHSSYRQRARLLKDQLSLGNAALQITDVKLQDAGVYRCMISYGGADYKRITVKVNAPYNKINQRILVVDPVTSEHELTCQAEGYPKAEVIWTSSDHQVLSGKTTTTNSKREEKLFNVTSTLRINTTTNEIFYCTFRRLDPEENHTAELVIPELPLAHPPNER
Sequence of PD-L1 (Q9NZQ7 19-238): as above

FFA1 (h) (GRP40) = FFA1 (h) (GRP40) (Homo sapiens (Human), UniProt O14842); assay: GPR40 functional assay, agonist effect (intracellular Ca2+, fluorimetry); assay type: cell-based; details: HEK293, human recombinant GPR40 in HEK-293 cells, control 100 μM linoleic acid
Sequence of FFA1 (h) (GRP40) (O14842 whole entry): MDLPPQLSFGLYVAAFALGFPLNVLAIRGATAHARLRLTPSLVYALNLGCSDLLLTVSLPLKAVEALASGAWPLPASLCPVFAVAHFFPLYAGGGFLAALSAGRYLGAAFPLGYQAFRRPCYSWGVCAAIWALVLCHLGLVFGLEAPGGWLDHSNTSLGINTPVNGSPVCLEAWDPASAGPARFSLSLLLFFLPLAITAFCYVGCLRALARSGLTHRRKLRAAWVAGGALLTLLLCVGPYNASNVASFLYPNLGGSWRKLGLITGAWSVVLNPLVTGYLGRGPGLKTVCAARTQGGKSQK
Method: (§1) Select compounds were tested in a functional GRP40 assay as described in Briscoe, C. P. et al. (Brit. J. Pharmacol., (2006), 148: 619-628) to determine agonist/antagonist activity. […] Using a HEK-293 cell line transiently transduced to express GPR40, the agonist/antagonist activity of select compounds has been assessed.

FFA1 (h) (GPR40) = FFA1 (h) (GPR40) (Homo sapiens (Human), UniProt O14842); assay: GPR40 functional assay, antagonist effect (intracellular Ca2+, fluorimetry); assay type: cell-based; details: stimulus linoleic acid 20000 nM; for inhibition at 10 µM: HEK293, human recombinant GPR40 in HEK-293 cells
Sequence of FFA1 (h) (GPR40) (O14842 whole entry): as above
Method: as §1

[1] = 0.3 nM His tagged PD-L1, 2.5 nM biotinylated Fc-PD-1, readings of 0.064 nM are equal to or less than 0.064 nM
[2] = 0.5 nM His tagged PD-L1 and 0.5 nM FLAG tagged PD-L1, Table 4A
[3] = 1st replicate, read-out: % of control agonist response, 1st
[4] = 2nd replicate, read-out: % of control agonist response, 2nd
[5] = mean, read-out: % of control agonist response, Mean
[6] = 0.3 nM His tagged PD-L1, 2.5 nM biotinylated Fc-PD-1, Table 3B
[7] = 0.5 nM His tagged PD-L1 and 0.5 nM FLAG tagged PD-L1, Table 4B
[8] = 1st replicate, read-out: % inhibition of control agonist response, 1st
[9] = 2nd replicate, read-out: % inhibition of control agonist response, 2nd
[10] = mean, read-out: % inhibition of control agonist response, Mean

Sequence of PD-1/PD-L1 (Q9NZQ7 19-238): as the sequence (Q9NZQ7 19-238) above

COc1nc(-c2cccc(-c3cccc4c3CC[C@@H]4Nc3nc(OC)c(CN4CC5(C(=O)O)CCC4CC5)nc3C(F)(F)F)c2Cl)ccc1CNC[C@@H]1CCC(=O)N1 [A-18, 2-((5-(((S)-4-(2-chloro-3-(6-methoxy-5-(((((S)-5-oxopyrrolidin-2-yl)methyl)amino)methyl)pyridin-2-yl)phenyl)-2,3-dihydro-1H-inden-1-yl)amino)-3-methoxy-6-(trifluoromethyl)pyrazin-2-yl)methyl)-2-azabicyclo[2.2.2]octane-4-carboxylic acid]
IC50 (PD-1/PD-L1; [1]): ≤ 0.064 nM | AC50 (PD-L1; [2]): 15.7 nM | activity at 10 µM (FFA1 (h) (GRP40); [3]): -0.6% | activity at 10 µM (FFA1 (h) (GRP40); [4]): -1.9% | activity at 10 µM (FFA1 (h) (GRP40); [5]): -1.3% | % inhibition of control agonist response, 1st (FFA1 (h) (GPR40); 10 μM, human recombinant GPR40 in HEK-293 cells, 1st replicate): 8.3% | % inhibition of control agonist response, 2nd (FFA1 (h) (GPR40); 10 μM, human recombinant GPR40 in HEK-293 cells, 2nd replicate): 17.4% | % inhibition of control agonist response, Mean (FFA1 (h) (GPR40); 10 μM, human recombinant GPR40 in HEK-293 cells, mean): 12.8%

COc1nc(-c2cccc(-c3cccc4c3CC[C@@H]4Oc3nc(OC)c(CN4CC5(C(=O)O)CCC4CC5)nc3C)c2Cl)ccc1CNC[C@@H]1CCC(=O)N1 [B-149]
IC50 (PD-1/PD-L1; [6]): 0.064 nM | AC50 (PD-L1; [7]): 32.4 nM | activity at 10 µM (FFA1 (h) (GRP40); [3]): -2% | activity at 10 µM (FFA1 (h) (GRP40); [4]): -0.5% | activity at 10 µM (FFA1 (h) (GRP40); [5]): -1.2% | inhibition at 10 µM (FFA1 (h) (GPR40); [8]): 8% | inhibition at 10 µM (FFA1 (h) (GPR40); [9]): 15% | inhibition at 10 µM (FFA1 (h) (GPR40); [10]): 11.5%

COc1nc(-c2cccc(-c3cccc4c3CC[C@@H]4Oc3nc(OC)c(CNC4(C(=O)O)CC4)cc3C(F)(F)F)c2Cl)ccc1CNC[C@@H]1CCC(=O)N1 [B-36]
IC50 (PD-1/PD-L1; [6]): 0.064 nM | AC50 (PD-L1; [7]): 3.77 nM | activity at 10 µM (FFA1 (h) (GRP40); [3]): -0.4% | activity at 10 µM (FFA1 (h) (GRP40); [4]): -0.5% | activity at 10 µM (FFA1 (h) (GRP40); [5]): -0.4% | inhibition at 10 µM (FFA1 (h) (GPR40); [8]): 30.5% | inhibition at 10 µM (FFA1 (h) (GPR40); [9]): 17% | inhibition at 10 µM (FFA1 (h) (GPR40); [10]): 23.7%

COc1nc(-c2cccc(-c3cccc4c3CC[C@@H]4Nc3nc(OC)c(CNC4(C(=O)O)CC4)cc3C(F)(F)F)c2Cl)ccc1CNC[C@@H]1CCC(=O)N1 [A-41]
IC50 (PD-1/PD-L1; [1]): ≤ 0.064 nM | AC50 (PD-L1; [2]): 7.6 nM | activity at 10 µM (FFA1 (h) (GRP40); [3]): 1.1% | activity at 10 µM (FFA1 (h) (GRP40); [4]): 0.1% | activity at 10 µM (FFA1 (h) (GRP40); [5]): 0.6% | inhibition at 10 µM (FFA1 (h) (GPR40); [8]): 23.1% | inhibition at 10 µM (FFA1 (h) (GPR40); [9]): 13.1% | inhibition at 10 µM (FFA1 (h) (GPR40); [10]): 18.1%

COc1nc(-c2cccc(-c3cccc4c3CC[C@@H]4Oc3nc(OC)c(CN(C)CC(=O)O)cc3C(F)(F)F)c2Cl)ccc1CN[C@H]1C[C@](C)(O)C1 [B-210]
IC50 (PD-1/PD-L1; [6]): 0.064 nM | AC50 (PD-L1; [7]): 23.7 nM

COc1nc(-c2cccc(-c3cccc4c3CC[C@@H]4Oc3nc(OC)c(CN4CCC[C@H]4C(=O)O)cc3C(F)(F)F)c2Cl)ccc1CNC[C@@H]1CCC(=O)N1 [B-5]
IC50 (PD-1/PD-L1; [6]): 0.064 nM | AC50 (PD-L1; [7]): 2.67 nM

COc1nc(-c2cccc(-c3cccc4c3CC[C@@H]4Oc3nc(OCc4cc(F)cc(C#N)c4)c(CN4CC5(C(=O)O)CCC4CC5)cc3Cl)c2Cl)ccc1CNC[C@@H]1CCC(=O)N1 [B-30]
IC50 (PD-1/PD-L1; [6]): 0.158 nM | AC50 (PD-L1; [7]): 58.3 nM

COc1nc(O[C@H]2CCc3c(-c4cccc(-c5cc(F)c(CNC[C@@H]6CCC(=O)N6)c(OC)n5)c4Cl)cccc32)c(C(F)(F)F)cc1CN1CC[C@H](C(=O)O)C1 [B-188]
IC50 (PD-1/PD-L1; [6]): 0.064 nM | AC50 (PD-L1; [7]): 12 nM

COc1nc(N[C@H]2CCc3c(-c4cccc(-c5ccc(CNC[C@@H]6CCC(=O)N6)c(OCC#N)n5)c4Cl)cccc32)c(C(F)(F)F)nc1CN1CC[C@@](C)(C(=O)O)C1 [A-26]
IC50 (PD-1/PD-L1; [1]): ≤ 0.064 nM | AC50 (PD-L1; [2]): 13.4 nM

COc1nc(-c2cccc(-c3cccc4c3CC[C@@H]4Nc3nc(OC)c(CN[C@@H](C)C(=O)O)nc3C(F)(F)F)c2Cl)ccc1CNC[C@@H]1CC(O)C(=O)N1 (stereo partly drawn) [A-45]
IC50 (PD-1/PD-L1; [1]): ≤ 0.064 nM | AC50 (PD-L1; [2]): 5.86 nM

COc1cc(-c2cccc(-c3cccc4c3CC[C@@H]4Oc3nc(OC)c(CN4CCC[C@@]4(C)C(=O)O)cc3C(F)(F)F)c2Cl)ccc1CNC[C@@H]1CCC(=O)N1 [B-118]
IC50 (PD-1/PD-L1; [6]): 0.064 nM | AC50 (PD-L1; [7]): 0.988 nM

COc1nc(-c2cccc(-c3cccc4c3CC[C@@H]4Nc3nc(OC)c(CN4CC[C@@H](C(=O)O)C4)cc3C(F)(F)F)c2Cl)ccc1CN1CC(C)(O)C1 [A-25]
IC50 (PD-1/PD-L1; [1]): ≤ 0.064 nM | AC50 (PD-L1; [2]): 28.1 nM

CC[C@](C)(NCc1cc(C(F)(F)F)c(O[C@H]2CCc3c(-c4cccc(-c5ccc(CNC[C@@H]6CCC(=O)N6)c(OC)n5)c4Cl)cccc32)nc1OC)C(=O)O [B-236]
IC50 (PD-1/PD-L1; [6]): 0.064 nM | AC50 (PD-L1; [7]): 3.02 nM

COc1cc(N[C@H]2CCc3c(-c4cccc(-c5ccc(CNC[C@@H]6CCC(=O)N6)c(OC)n5)c4Cl)cccc32)c(Cl)cc1CN1CC[C@H](C(=O)O)C1 [A-15]
IC50 (PD-1/PD-L1; [1]): ≤ 0.064 nM | AC50 (PD-L1; [2]): 51.6 nM

COC(=O)[C@H]1[C@@H]2CN(Cc3cc(Cl)c(O[C@H]4CCc5c(-c6cccc(-c7ccc(CNC[C@@H]8CCC(=O)N8)c(OC)n7)c6Cl)cccc54)nc3OC)C[C@@H]21 [B-94]
IC50 (PD-1/PD-L1; [6]): 0.068 nM | AC50 (PD-L1; [7]): 103 nM

COc1nc(-c2cccc(-c3cccc4c3CC[C@@H]4Oc3nc(OC)c(CNCC(=O)O)cc3C(F)(F)F)c2Cl)ccc1CNC[C@H]1C[C@](C)(O)C1 [B-206]
IC50 (PD-1/PD-L1; [6]): 0.064 nM | AC50 (PD-L1; [7]): 7.77 nM

COc1nc(-c2cccc(-c3cccc4c3CC[C@@H]4Nc3nc(OC)c(CNC4(C(=O)O)CC4)nc3C(F)(F)F)c2Cl)ccc1CNC[C@H]1C[C@](C)(O)C1 [A-85]
IC50 (PD-1/PD-L1; [1]): ≤ 0.064 nM | AC50 (PD-L1; [2]): 42.5 nM

COc1nc(-c2cccc(-c3cccc4c3CC[C@@H]4Nc3nc(OC)c(CNC4(C(=O)O)CCC4)cc3C(F)(F)F)c2Cl)ccc1CNCC1CCC(=O)N1 (stereo partly drawn) [A-22]
IC50 (PD-1/PD-L1; [1]): ≤ 0.064 nM | AC50 (PD-L1; [2]): 8.17 nM

CCN(CC(=O)O)Cc1cc(C(F)(F)F)c(O[C@H]2CCc3c(-c4cccc(-c5cc(F)c(CNC[C@@H]6CCC(=O)N6)c(OC)c5)c4Cl)cccc32)nc1OC [B-179]
IC50 (PD-1/PD-L1; [6]): 0.064 nM | AC50 (PD-L1; [7]): 3.64 nM

COC(=O)[C@@H]1CCN(Cc2ncc(O[C@H]3CCc4c(-c5cccc(-c6ccc(CNC[C@@H]7CCC(=O)N7)c(OC)n6)c5Cl)cccc43)nc2OC)C1 [B-157]
IC50 (PD-1/PD-L1; [6]): 0.195 nM | AC50 (PD-L1; [7]): 1420 nM

COc1nc(-c2cccc(-c3cccc4c3CC[C@@H]4Oc3nc(OC)c(CN4CC5CCC4(C(=O)O)CC5)cc3C(F)(F)F)c2Cl)ccc1CN1CC2(CCC(=O)N2)C1 [B-226]
IC50 (PD-1/PD-L1; [6]): 0.064 nM | AC50 (PD-L1; [7]): 5.33 nM

COc1nc(-c2cccc(-c3cccc4c3CC[C@@H]4Nc3nc(OC)c(CN)nc3C(F)(F)F)c2Cl)ccc1CNC[C@@H]1CCC(=O)N1 [A-17]
IC50 (PD-1/PD-L1; [1]): 0.077 nM | AC50 (PD-L1; [2]): 13.9 nM

COc1nc(-c2cccc(-c3cccc4c3CC[C@@H]4Oc3nc(OC)c(CN4CCC[C@@]4(C)C(=O)O)cc3C)c2Cl)ccc1CNC[C@@H]1CCC(=O)N1 [B-237]
IC50 (PD-1/PD-L1; [6]): 0.064 nM | AC50 (PD-L1; [7]): 20.7 nM

COc1nc(-c2cccc(-c3cccc4c3CC[C@@H]4Oc3nc(OC)c(CN4CCC(NC(C)=O)C4)cc3Cl)c2Cl)ccc1CNC[C@@H]1CCC(=O)N1 (stereo partly drawn) [B-64]
IC50 (PD-1/PD-L1; [6]): 0.076 nM | AC50 (PD-L1; [7]): 40.5 nM
